US11926628B2 (Gilead Sciences, Inc., priority 2021, dated 2024)

Tests used:
human DGKα = human DGKα (Homo sapiens (Human), UniProt P23743); assay: DGKα Biochemical Activity Assay (ADP-Glo); conditions: recombinant DGKα 1 nM, 100 μM ATP, 18:1 DAG/POPS/octylglucoside micelles, 1 hour at 25° C.; geometric mean; read-out: HTBS DGKa 1X ATP KM IC50
Source text: Alternatively, the enzymatic activity of human DGKα was monitored in a biochemical assay in the presence or absence of compounds and using micelles containing 18:1 Diacylglycerol (DAG), 16:0-18:1 PS (POPS) and Octylglucoside as substrate. DGKα activity led to conversion of DAG and ATP to Phosphatidic Acid (PA) and ADP. Levels of ADP were monitored by bioluminescence using the ADP-Glo Kinase Assay (Promega) and were indicative of DGKα activity.
Ten nanoliters of test compound dissolved in DMSO at various concentrations were dispensed into a 384-well low volume nonbinding service white plates (Corning #3824) using a Labcyte Echo instrument. Recombinant DGKα (Carna Biosciences) in assay buffer (5 μL in 50 mM MOPS [3-(N-morpholino) propanesulfonic acid], pH 7.2; 0.0025% Triton X-100; 1 mM dithiothreitol; 5 mM MgCl2, 200 μM ATP) was added to the compound-containing plate and was incubated for 15 minutes at 25° C. A substrate solution (5 μL in 1.7 mM 1,2-dioleoyl-sn-glycerol [18:1 DAG], 13.5 mM 1-palmitoyl-2-oleoyl-sn-glycero-3-phospho-L-serine [16:0-18:1 PS](POPS), 2 μM CaCl2, 100 mM Octylglucoside (OG), 1 mM DTT) (obtained from Carna Biosciences) diluted in DGK ALPHA assay buffer was then added to start the reaction. Final concentrations were 1 nM DGKα, 100 μM ATP, 1 μM calcium chloride, 0.85 mM 1,2-dioleoyl-sn-glycerol (18:1 DAG), 6.75 mM 1-palmitoyl-2-oleoyl-sn-glycero-3-phospho-L-serine (16:0-18:1 PS) (POPS), 1 μM CaCl2), 50 mM Octylglucoside (OG) and 5 mM MgCl2. The reaction mixture was incubated at 25° C. for 1 hour. ADP-Glo Reagent (10 μL, 10 mM Mg added) provided by the kit was added to each well and incubated at 25° C. for 40 minutes. Then, 20 μL of Kinase Detection Reagent was added and incubated at 25° C. for 40 minutes. Luciferase activity of each well was measured via luminescence on an Envision plate reader (PerkinElmer).
Data were normalized based on maximum inhibition (50 μM of kinase inhibitor CU3) and no inhibition (DMSO) controls. Least squares curve fittings were performed using a four-parameter variable slope nonlinear regression model. IC50 was defined as the concentration of compound required to inhibit 50% of maximum activity. IC50 values from multiple experiments were averaged by geometric mean and the standard deviation was calculated.

[1] = tested on: Jurkat NFκB-luciferase cells; assay: Jurkat NFκB-Luciferase Assay; format: cell-based; conditions: Homo sapiens; Jurkat NFκB-luciferase cells activated with anti-CD3 antibody (OKT3), 2.5 hrs at 37° C.; geometric mean; read-out: DGK NFKb Luciferase EC50
Protocol: The activity of compounds was tested in a cell based NFκB reporter assay. Jurkat cells that are stably expressing a luciferase reporter construct under the transcriptional control of a NFκB reporter element were activated with an anti-CD3 antibody and luciferase levels were measured with a bioluminescence readout. An increase in the levels of bioluminescence was indicative of enhanced T-cell activation following DGKα inhibition by the compound.
Flat-bottom polystyrene plates (384-well, tissue culture treated) were coated overnight at 4° C. with 20 ul/well of a solution of phosphate-buffered saline supplemented with 5 ug/ml anti-CD3 antibody (clone OKT3, Biolegend). The day after, the excess antibody was washed out five times with 100 ul/well of assay medium (RPMI supplemented with 10% fetal bovine serum) using a Biotek EL406 instrument and leaving 20 ul of residual volume in each well. Jurkat NFκB-luciferase cells (Promega #) were harvested and diluted to 1 million cells/ml in assay medium. Sixty nanoliters of test compound dissolved in DMSO at various concentrations were dispensed into 384-well v-bottom polypropylene plates (Greiner) using a Labcyte Echo instrument. Thirty microliters of medium containing the Jurkat NFκB-luciferase cells were then dispensed using a Biotek MicroFlo instrument in each well of the compound-containing plate. The medium/cell/compound mixture was mixed with a Bravo instrument and 20 ul/well of the mixture was transferred to the anti-CD3-coated plate. The assay mixture was then incubated for 2.5 hrs at 37° C. followed by equilibration at 25° C. for 30 min. Forty microliters of One-Glo Ex (Promega) was then added to the assay mixture and luciferase activity was read on a Envision plate reader 7 minutes later.
Bioluminescence data were normalized based on maximum enhancement (1 micromolar of compound) and on basal activation (DMSO) controls. Least squares curve fittings were performed using a four-parameter variable slope nonlinear regression model. EC50 is defined as the concentration of compound required to produce 50% of maximum NFκB luciferase signal. EC50 values from multiple experiments were averaged by geometric mean and the standard deviation was calculated.

Sequence of human DGKα (P23743 whole entry): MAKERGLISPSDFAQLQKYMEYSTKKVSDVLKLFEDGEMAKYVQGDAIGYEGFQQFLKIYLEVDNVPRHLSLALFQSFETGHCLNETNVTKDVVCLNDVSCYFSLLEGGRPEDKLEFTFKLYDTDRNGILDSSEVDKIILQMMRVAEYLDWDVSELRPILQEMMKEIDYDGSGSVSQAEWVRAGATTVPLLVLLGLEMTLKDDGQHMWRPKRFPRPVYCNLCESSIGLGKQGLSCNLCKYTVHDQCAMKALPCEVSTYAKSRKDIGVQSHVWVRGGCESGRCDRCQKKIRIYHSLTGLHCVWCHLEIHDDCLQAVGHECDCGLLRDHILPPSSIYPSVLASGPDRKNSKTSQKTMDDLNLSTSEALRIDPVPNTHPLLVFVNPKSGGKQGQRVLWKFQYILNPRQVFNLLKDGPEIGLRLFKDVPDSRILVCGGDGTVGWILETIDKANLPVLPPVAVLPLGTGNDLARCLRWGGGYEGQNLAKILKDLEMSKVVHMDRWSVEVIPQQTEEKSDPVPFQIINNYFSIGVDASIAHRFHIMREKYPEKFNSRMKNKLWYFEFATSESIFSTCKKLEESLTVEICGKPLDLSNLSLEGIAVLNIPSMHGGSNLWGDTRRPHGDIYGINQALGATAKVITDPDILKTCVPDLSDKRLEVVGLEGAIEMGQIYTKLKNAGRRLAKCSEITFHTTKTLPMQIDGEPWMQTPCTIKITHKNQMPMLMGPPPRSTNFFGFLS

## CN(c1cc(F)cc(C#CC2(C)CC2)c1)c1nc2nncn2c2cncc(F)c12 [Example 91, 10-fluoro-N-[3-fluoro-5-[2-(1-methylcyclopropyl)ethynyl]phenyl]-N-methyl-2,4,5,7,12-pentazatricyclo[7.4.0.02,6]trideca-1(13),3,5,7,9,11-hexaen-8-amine]
Human DGKα
  IC50: 6.25 nM
[1]
  EC50: 1.25 nM

## Cc1nnc2nc(N3CCOCc4c(C#CC5CN(C)CCO5)cccc43)c3c(F)cncc3n12 (centres unmarked) [Example 56, 1-(10-fluoro-3-methyl-2,4,5,7,12-pentazatricyclo[7.4.0.02,6]trideca-1(13),3,5,7,9,11-hexaen-8-yl)-6-[2-(4-methylmorpholin-2-yl)ethynyl]-3,5-dihydro-2H-4,1-benzoxazepine]
Human DGKα
  IC50: 18.6 nM
[1]
  EC50: 109 nM

## Cc1nnc2nc(N3CCCOc4c(Br)cccc43)c3c(F)cncc3n12 [Example 75, 9-bromo-5-(6-fluoro-1-methylpyrido[4,3-e][1,2,4]triazolo[4,3-a]pyrimidin-5-yl)-2,3,4,5-tetrahydrobenzo[b][1,4]oxazepine]
Human DGKα
  IC50: 357 nM
[1]
  EC50: 48.2 nM

## COc1ccc2c(N(C)c3cccc(C#CC(C)(C)O)c3)nc3nncn3c2n1 [Example 114, 4-(3-((2-methoxypyrido[3,2-e][1,2,4]triazolo[4,3-a]pyrimidin-5-yl)(methyl)amino)phenyl)-2-methylbut-3-yn-2-ol]
Human DGKα
  IC50: 75.4 nM
[1]
  EC50: 27 nM

## Cc1nnc2nc(N3CCOCc4c(C#CC(C)(C)O)cccc43)c3ccc(C(F)(F)F)nc3n12 [Example 141, 2-methyl-4-[1-[3-methyl-12-(trifluoromethyl)-2,4,5,7,13-pentazatricyclo[7.4.0.02,6]trideca-1(13),3,5,7,9,11-hexaen-8-yl]-3,5-dihydro-2H-4,1-benzoxazepin-6-yl]but-3-yn-2-ol]
Human DGKα
  IC50: 20.1 nM
[1]
  EC50: 55.8 nM

## Cc1nnc2nc(N3CCCc4c3ccnc4C#CC3(C)CC3)c3c(F)cncc3n12 [Example 32, 6-fluoro-1-methyl-5-(5-((1-methylcyclopropyl)ethynyl)-3,4-dihydro-1,6-naphthyridin-1(2H)-yl)pyrido[4,3-e][1,2,4]triazolo[4,3-a]pyrimidine]
Human DGKα
  IC50: 12.6 nM
[1]
  EC50: 8.79 nM

## Cc1ccc2c(N(C)c3cccc(-c4ccc(C(F)F)cc4)c3)nc3nncn3c2n1 [Example 124, N-(4′-(difluoromethyl)-[1,1′-biphenyl]-3-yl)-N,2-dimethylpyrido[3,2-e][1,2,4]triazolo[4,3-a]pyrimidin-5-amine]
Human DGKα
  IC50: 12.3 nM
[1]
  EC50: 7.45 nM

## CN(c1cccc(C#CC2(C(F)(F)F)CC2)c1)c1nc2nncn2c2ncc(F)cc12 [Example 154, 3-fluoro-N-methyl-N-(3-((1-(trifluoromethyl)cyclopropyl)ethynyl)phenyl)pyrido[3,2-e][1,2,4]triazolo[4,3-a]pyrimidin-5-amine]
Human DGKα
  IC50: 20.7 nM
[1]
  EC50: 3.54 nM

## CNc1ccc2c(N(C)c3cccc(C#CC(C)(C)C)c3)nc3nncn3c2n1 [Example 118, N5-(3-(3,3-dimethylbut-1-yn-1-yl)phenyl)-N2,N5-dimethylpyrido[3,2-e][1,2,4]triazolo[4,3-a]pyrimidine-2,5-diamine]
Human DGKα
  IC50: 105 nM
[1]
  EC50: 5.79 nM

## CC1(C#Cc2cc(F)cc(N(CC(F)F)c3nc4nncn4c4cncc(F)c34)c2)CC1 [Example 45, N-(2,2-difluoroethyl)-6-fluoro-N-(3-fluoro-5-((1-methylcyclopropyl)ethynyl)phenyl)pyrido[4,3-e][1,2,4]triazolo[4,3-a]pyrimidin-5-amine]
Human DGKα
  IC50: 52.1 nM
[1]
  EC50: 2.67 nM

## CN(c1cc(F)cc(C#CC(C)(C)O)c1)c1nc2cncn2c2cc(Cl)ccc12 [Example 3, 4-[3-[(8-chloroimidazo[1,5-a]quinazolin-5-yl)-methyl-amino]-5-fluoro-phenyl]-2-methyl-but-3-yn-2-ol]
Human DGKα
  IC50: 839 nM
[1]
  EC50: 14.6 nM

## Cc1nnc2nc(N3CCCc4c(C#CC5(C)CC5)cccc43)c3ncccc3n12 [Example 22, 3-methyl-8-[5-[2-(1-methylcyclopropyl)ethynyl]-3,4-dihydro-2H-quinolin-1-yl]-2,4,5,7,10-pentazatricyclo[7.4.0.02,6]trideca-1(13),3,5,7,9,11-hexaene]
Human DGKα
  IC50: 23.2 nM
[1]
  EC50: 3.26 nM

## CCOc1ccc2c(N(C)c3cccc(-c4ccc(C5CC5)cc4)c3)nc3nncn3c2n1 [Example 113, N-(4′-cyclopropyl-[1,1′-biphenyl]-3-yl)-2-ethoxy-N-methylpyrido[3,2-e][1,2,4]triazolo[4,3-a]pyrimidin-5-amine]
[1]
  EC50: 67.2 nM

## CCN(c1cc(F)cc(C#CC(C)(C)C(F)(F)F)c1)c1nc2nncn2c2cncc(F)c12 [Example 88, N-ethyl-10-fluoro-N-[3-fluoro-5-(4,4,4-trifluoro-3,3-dimethyl-but-1-ynyl)phenyl]-2,4,5,7,12-pentazatricyclo[7.4.0.02,6]trideca-1(13),3,5,7,9,11-hexaen-8-amine]
Human DGKα
  IC50: 41.1 nM
[1]
  EC50: 1.22 nM

## Fc1cc(C#CC2(C(F)F)CC2)cc(N(CC(F)F)c2nc3nncn3c3cncc(F)c23)c1 [Example 43, N-(2,2-difluoroethyl)-N-(3-((1-(difluoromethyl)cyclopropyl)ethynyl)-5-fluorophenyl)-6-fluoropyrido[4,3-e][1,2,4]triazolo[4,3-a]pyrimidin-5-amine]
Human DGKα
  IC50: 33 nM
[1]
  EC50: 5.48 nM

## Cc1nnc2nc(N3CCCCc4c(C#CC(C)(C)C#N)cccc43)c3c(F)cncc3n12 [Example 64, 4-(1-(6-fluoro-1-methylpyrido[4,3-e][1,2,4]triazolo[4,3-a]pyrimidin-5-yl)-2,3,4,5-tetrahydro-1H-benzo[b]azepin-6-yl)-2,2-dimethylbut-3-ynenitrile]
[1]
  EC50: 5.98 nM

## Cc1nnc2nc(N3CCCc4c(C#CC5(C(F)(F)F)CC5)cccc43)c3c(F)cncc3n12 [Example 41, 6-fluoro-1-methyl-5-(5-((1-(trifluoromethyl)cyclopropyl)ethynyl)-3,4-dihydroquinolin-1(2H)-yl)pyrido[4,3-e][1,2,4]triazolo[4,3-a]pyrimidine]
[1]
  EC50: 2.4 nM

## CN(C)c1ccc2c(N(C)c3cccc(C#CC(C)(C)C)c3)nc3nncn3c2n1 [Example 110, N^5-(3-(3,3-dimethylbut-1-yn-1-yl)phenyl)-N^2,N^2,N^5-trimethylpyrido[3,2-e][1,2,4]triazolo[4,3-a]pyrimidine-2,5-diamine]
[1]
  EC50: 9.9 nM

## CN(C)c1ccc2c(N(C)c3cccc(-c4ccc(C5CC5)cc4)c3)nc3nncn3c2n1 [Example 112, N^5-(4′-cyclopropyl-[1,1′-biphenyl]-3-yl)-N^2,N^2,N^5-trimethylpyrido[3,2-e][1,2,4]triazolo[4,3-a]pyrimidine-2,5-diamine]
[1]
  EC50: 0.982 nM

## COc1ccc(-c2cccc(N(C)c3nc4nncn4c4nc(N(C)C)ccc34)c2)cn1 [Example 111, N^5-(3-(6-methoxypyridin-3-yl)phenyl)-N^2,N^2,N^5-trimethylpyrido[3,2-e][1,2,4]triazolo[4,3-a]pyrimidine-2,5-diamine]
[1]
  EC50: 20.1 nM

## CN(c1cccc(C#CC(C)(C)C)c1)c1nc2nncn2c2cnccc12 [Example 60]
[1]
  EC50: 6.75 nM
